Test results reported in patent US12466790B1, “Bis urea-based organoselenium compound and method for treating cancer” (IMAM MOHAMMAD IBN SAUD ISLAMIC UNIVERSITY, priority 2024, dated 2025).

Assays:
[1] = system: breast cancer cell line (MCF7); experiment: SRB growth inhibition assay, MCF7; format: cell-based; conditions: Homo sapiens, MCF7 cells, 100 μg/mL, 48 h incubation, read-out: growth inhibition percentage
Method: (§1) The antitumor activities of the bis-(organoselanyl urea)aryl agent against all tested cell lines were evaluated by sulphorhodamine-B (SRB) assay. Briefly, cells were seeded at a density of 3×10^3 cells/well in 96-well microtiter plates. They were left to attach for 24 h before incubation with the aforementioned compound. Next, cells were treated with 100 μg/mL for bis-(organoselanyl urea)aryl agent. For each concentration, three wells were used, and incubation was continued for 48 h. DMSO was used as a control vehicle (1% v/v). At the end of incubation, cells were fixed with 20% trichloroacetic acid and stained with 0.4% SRB dye. The optical density (O.D.) of each well was measured spectrophotometrically at 570 nm using an ELISA microplate reader (TECAN Sunrise™, Germany). The mean survival fraction at each drug concentration was calculated as follows: O.D. of the treated cells/O.D. of the control cells. The IC50 (concentration that produces 50% of cell growth inhibition) value of bis-(organoselanyl urea)aryl agent was calculated using sigmoidal dose-response curve-fitting models.

[2] = system: hepatocellular carcinoma (HuH7); experiment: SRB growth inhibition assay, HuH7; format: cell-based; conditions: Homo sapiens, Huh-7, HuH7 cells, 100 μg/mL, 48 h incubation, read-out: growth inhibition percentage
Method: as §1

[3] = system: non-small cell lung cancer (A549); experiment: SRB growth inhibition assay, A549; format: cell-based; conditions: Homo sapiens, A549 cells, 100 μg/mL, 48 h incubation, read-out: growth inhibition percentage
Method: as §1

melanoma cancer (A375) = experiment: SRB growth inhibition assay, A375; format: cell-based; conditions: Homo sapiens, A-375, A375 cells, 100 μg/mL, 48 h incubation, read-out: growth inhibition percentage
Method: as §1

[4] = system: human squamous cell carcinoma of the oral tongue (HN9); experiment: SRB growth inhibition assay, HN9; format: cell-based; conditions: HN9 cells, 100 μg/mL, 48 h incubation, read-out: growth inhibition percentage
Method: as §1

[5] = system: pharynx squamous carcinoma (FaDu); experiment: SRB growth inhibition assay, FaDu; format: cell-based; conditions: Homo sapiens, FaDu cells, 100 μg/mL, 48 h incubation, read-out: growth inhibition percentage
Method: as §1

[6] = system: colorectal carcinoma (HCT116); experiment: SRB growth inhibition assay, HCT116; format: cell-based; conditions: Homo sapiens, HCT-116, HCT116 cells, 100 μg/mL, 48 h incubation, read-out: growth inhibition percentage
Method: as §1

[7] = system: hepatocellular carcinoma (HEPG2); experiment: SRB growth inhibition assay, HEPG2; format: cell-based; conditions: Homo sapiens, HEPG2 cells, 100 μg/mL, 48 h incubation, read-out: growth inhibition percentage
Method: as §1

[8] = system: human skin fibroblast normal cell (HSF); conditions: 48 h, 100 μg/mL
Method: as §1

[9] = system: normal oral epithelial cell line (OEC); conditions: 48 h, 100 μg/mL
Method: as §1

Row | Structure (SMILES) | inhibition at 100 µg/mL [1] | inhibition at 100 µg/mL [2] | inhibition at 100 µg/mL [3] | inhibition at 100 µg/mL (melanoma cancer (A375)) | inhibition at 100 µg/mL [4] | inhibition at 100 µg/mL [5] | inhibition at 100 µg/mL [6] | inhibition at 100 µg/mL [7] | growth inhibition percentage (safety, normal cells) [8] | growth inhibition percentage (safety, normal cells) [9]
1 | COc1cccc2c1C(=O)c1c(O)c3c(c(O)c1C2=O)C[C@@](O)(C(=O)CO)C[C@@H]3O[C@H]1C[C@H](N)[C@H](O)[C@H](C)O1 [doxorubicin, reference compound] | 58.6% | 68% | 39.1% | 78.2% | 51.7% | 79.3% | 64.3% | 55.6% | – | –
2 | C[Se]c1ccc(NC(=O)Nc2ccc(Cc3ccc(NC(=O)Nc4ccc([Se]C)cc4)cc3)cc2)cc1 [HB190, 1,1′-(methylenebis(4,1-phenylene))bis(3-(4-(methylselanyl)phenyl)urea)] | 67.7% | 88.6% | 74.4% | 66.8% | 74% | 77.3% | 85.3% | 76.2% | 9.76% | 7.32%
